Read-outs that look alike come from different tables or passages of the source.
Legend:
[1] = Plasma clearance in rats, single injection clearance method; conditions: for Plasma clearance: normal rats; for Clearance: rats, 2 mg/kg i.v. bolus tail vein, n=3, LC-MS/MS, noncompartmental
Method: The experiment for each compound was performed in isoflurane-anesthetized male SD rats (body weight 180-260 gm; n=3). Solution formulation of each compound was prepared in sterile water for injection with strength of 1 mg/mL. All solution formulations were prepared freshly prior to dosing. The dose volume for i.v bolus injection was 2 mL/kg. Three rats for each compound were administered intravenously (i.v.) bolus injection in tail vein at 2 mg/kg body weight. Blood samples were obtained at pre-dose (0 hr), 0.08, 0.17, 0.25, 0.5, 0.75, 1 and 2 hr post dosing. The blood samples (˜120 μL) were taken from the retro-orbital plexus into labelled micro centrifuge tubes, containing 10 μL of 2% w/v K2EDTA solution, as an anticoagulant. […] Bioanalysis of rat plasma samples were analysed with developed method for each analyte using LC-MS/MS (Waters, Xevo TQ-S). The pharmacokinetic parameters such as area under the curve (AUC), elimination half-life (T1/2), volume of distribution (Vss) and clearance (CL) were estimated using a noncompartmental model in Phoenix WinNonlin software, version 6.3.

[2] = Limited organ bio-distribution in mice; format: in vivo, Female Swiss Albino mice; conditions: for Kidney (% ID) / Liver (% ID) / Small Intestine (% ID) / Urine (% ID): n=4
Method: Female Swiss Albino mice were randomized (4 animals per time-point) according to body weight on the day prior to the experimental date. Some of the selected compounds of formula (I) are evaluated for a limited bio-distribution study involving five selected organs of interest such as Blood, Liver, Small Intestines, Kidneys and Urine. Each compound was dissolved in a vehicle comprising of 10% N-methyl-2-pyrrolidone in sterile water to achieve a final strength of 1 mg/mL. The mixture was sonicated for 2 min to yield a clear solution. Compound was administered to mice via tail vein at a dose volume of 2 mL/kg in order to obtain a final dose of 2 mg/kg. […] Blood was collected from the retro-orbital plexus in K2-EDTA containing tubes, centrifuged, plasma harvested and stored at −80° C. until further analysis. Liver, kidneys (right and left), and small intestine were harvested, weighted, and stored at −80° C. The small intestine was flushed with normal saline prior to storage. Urine was collected directly from the bladder and stored at −80° C.
Liver, kidneys, and small intestine were homogenized in water at 20% w/v. The respective homogenates were mixed thoroughly and stored at −80° C. until further processing. An aliquot of 100 μL of plasma/tissue homogenate was transferred to a 1.5 mL micro centrifuge tube. Twenty five microliters of compound (5 μg/mL), hundred microliters of 1% formic acid and 750 μL of tert-butyl methyl ether were added and sample was vortexed for 3 min. After centrifugation of the sample at 12,000 rpm at 4° C. for 5 min, supernatant was removed and evaporated under nitrogen stream at 40° C. for an additional 10 min (nitrogen evaporator, Caliper Instruments USA). The residue was reconstituted with 125 μL of solution (acetonitrile:water 1:1) and 10 μL was injected into the chromatographic system. On similar lines, an aliquot of 50 μL of urine was transferred to a 1.5 mL micro centrifuge tube. One hundred and fifty microliters of compound (5 μg/mL), was added and sample was vortexed for 3 min. After centrifugation of the sample at 12,000 rpm at 4° C. for 5 min, supernatant was removed and 10 μL was subjected to LC-MS/MS (Thermo Quantum Ultra) for the analysis.
Analyte concentrations were determined by evaluating the peak area ratio of drug to internal standard against a standard curve. The standard curve was prepared by plotting the relationship between peak area ratio of analyte to internal standard against concentration of standard CC samples by using linear regression y=ax+b and putting the 1/x^2 as weighting factor.
Data were expressed as ng/g for liver, kidneys, and small intestine. Percent compound in tissues was calculated based on the absolute dose administered (mg/kg). Plasma concentrations as a percent of administered dose were extrapolated assuming a total blood volume of 6% body weight and a 60% yield (plasma from blood). Compound concentrations in urine were expressed as μg per total volume collected.

[3] = literature, cited from earlier work; for Plasma clearance: known renal diagnostic agents
[4] = 15 min after injection, 2 mg/kg tail vein
[5] = 15 min after injection, 2 mg/kg tail vein, n=4, plasma extrapolated assuming blood volume 6% body weight, 60% yield
[6] = 60 min after injection, n=4, plasma extrapolated to blood

Plasma clearance [1]	Clearance [1]	retention in liver, small intestine and kidney (in words) ([2]; 15 min after injection)	Kidney (% ID) [2, 4]	Liver (% ID) [2, 4]	Small Intestine (% ID) [2, 4]	Urine (% ID) [2, 4]	Kidney (% ID) ([2]; 60 min after injection)	Liver (% ID) ([2]; 60 min after injection)	Small Intestine (% ID) ([2]; 60 min after injection)	Blood (% ID) [2, 6]	Molecule	Blood (% ID) [2, 5]	Plasma clearance [3]	clearance as percent of the clearance of 131I-OIH [3]
3.25±0.13 ml/min/100 g	3.25 ± 0.13 mL/min/100 g	minimum retention	0.09 ± 0.04 % ID	0.21 ± 0.05 % ID	0.01 ± 0.01 % ID	83.59 ± 8.82 % ID	0.00 ± 0.00 % ID	0.05 ± 0.07 % ID	0.00 ± 0.00 % ID	0.01 ± 0.00 % ID	C[C@H](NC(=O)c1ccc(N)cc1[18F])C(=O)O [Compound 10, (S)-2-(4-Amino-2-(18)fluorobenzamido)propanoic acid]	0.50 ± 0.27 % ID	–	–
–	–	–	–	–	–	–	–	–	–	–	Tc-99m MercaptoAcetylGlycylGlycylGlycine [Tc-99m MAG-3]	–	2.84 ml/min/100 g	50%-60%
–	–	–	–	–	–	–	–	–	–	–	O=C(O)CNC(=O)c1ccccc1[131I] [Compound I-131, I-131-ortho iodohippuran]	–	2.17 ml/min/100 g	–
3.36±0.41 ml/min/100 g	3.36 ± 0.41 mL/min/100 g	minimum retention	0.06 ± 0.02 % ID	0.02 ± 0.03 % ID	0.09 ± 0.05 % ID	82.31 ± 9.60 % ID	0.01 ± 0.02 % ID	0.00 ± 0.00 % ID	0.00 ± 0.00 % ID	0.12 ± 0.17 % ID	C[C@@H](NC(=O)c1ccc(N)cc1[18F])C(=O)O [Compound 11, (R)-2-(4-Amino-2-(18)fluorobenzamido)propanoic acid]	0.94 ± 0.53 % ID	–	–
2.78±0.19 ml/min/100 g	2.78 ± 0.19 mL/min/100 g	minimum retention	0.13 ± 0.01 % ID	0.08 ± 0.04 % ID	0.04 ± 0.02 % ID	72.73 ± 1.91 % ID	0.00 ± 0.00 % ID	0.00 ± 0.00 % ID	0.00 ± 0.00 % ID	0.02 ± 0.02 % ID	Nc1cc(C(=O)NCC(=O)O)ccc1[18F] [Compound 3, 2-(3-Amino-4-(18)fluorobenzamido)acetic acid]	0.83 ± 0.02 % ID	–	–
3.48±0.63 ml/min/100 g	3.48 ± 0.63 mL/min/100 g	minimum retention	0.47 ± 0.20 % ID	0.08 ± 0.02 % ID	0.11 ± 0.08 % ID	78.21 ± 4.79 % ID	0.01 ± 0.01 % ID	0.02 ± 0.02 % ID	0.01 ± 0.01 % ID	0.02 ± 0.01 % ID	Nc1ccc(C(=O)NCC(=O)O)cc1[19F] [Compound 6, 2-(4-Amino-3-(18)fluorobenzamido)acetic acid]	0.68 ± 0.38 % ID	–	–

Molecule	Plasma clearance [1]	Clearance [1]	retention in liver, small intestine and kidney (in words) ([2]; 15 min after injection)	Kidney (% ID) [2, 4]	Liver (% ID) [2, 4]	Small Intestine (% ID) [2, 4]	Urine (% ID) [2, 4]	Kidney (% ID) ([2]; 60 min after injection)	Liver (% ID) ([2]; 60 min after injection)	Small Intestine (% ID) ([2]; 60 min after injection)	Blood (% ID) [2, 6]	Blood (% ID) [2, 5]	Plasma clearance [3]	clearance as percent of the clearance of 131I-OIH [3]
CC(=O)Nc1ccc(C(=O)NCC(=O)O)c([18F])c1 [Compound 2, 2-(4-Acetamido-2-(18)fluorobenzamido)acetic acid]	–	–	–	1.19 ± 0.53 % ID	–	0.09 ± 0.04 % ID	84.42 ± 3.44 % ID	0.05 ± 0.09 % ID	–	0.02 ± 0.02 % ID	–	–	–	–
Nc1cccc([18F])c1C(=O)NCC(=O)O [Compound 8, 2-(2-Amino-6-(18)fluorobenzamido)acetic acid]	–	1.55 ± 0.10 mL/min/100 g	–	0.91 ± 0.40 % ID	–	0.10 ± 0.09 % ID	87.51 ± 4.14 % ID	0.02 ± 0.03 % ID	–	0.01 ± 0.01 % ID	–	–	–	–
Nc1ccc(C(=O)NCC(=O)O)c([18F])c1 [Compound 1, 2-(4-amino-2-(18)fluorobenzamido)acetic acid]	–	–	–	0.51 ± 0.45 % ID	–	0.07 ± 0.08 % ID	87.76 ± 6.03 % ID	0.00 ± 0.00 % ID	–	0.00 ± 0.00 % ID	–	–	–	–
